{"source": "patent US20090029949A1", "about": "“GPCR Ligands Identified by Computational Modeling” (priority 2006, published 2009)", "key": {"S1P1 mutant L6.41G": {"molecular_target": "T1, S1P1 mutant L6.41G (Homo sapiens, UniProt P21453, L262G)", "T1 construct": "expressed in transfected cells; host or cells: RH7777", "T1 sequence (P21453 whole entry L262G)": "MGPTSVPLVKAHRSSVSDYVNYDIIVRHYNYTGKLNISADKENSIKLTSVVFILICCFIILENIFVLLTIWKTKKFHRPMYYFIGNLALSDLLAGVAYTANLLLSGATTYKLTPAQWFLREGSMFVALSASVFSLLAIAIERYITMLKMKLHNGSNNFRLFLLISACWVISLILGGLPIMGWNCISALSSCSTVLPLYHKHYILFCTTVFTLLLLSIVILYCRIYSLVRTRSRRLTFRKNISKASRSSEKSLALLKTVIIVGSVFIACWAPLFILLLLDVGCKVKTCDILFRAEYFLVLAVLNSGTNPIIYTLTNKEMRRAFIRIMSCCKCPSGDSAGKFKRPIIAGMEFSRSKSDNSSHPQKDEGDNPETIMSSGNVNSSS", "assay": "[35S]GTPγS binding, S1P1 L6.41G", "type": "biochemical", "details": "S1P-induced, S1P1 L6.41G in RH7777 cells; mutant not detected at the cell surface", "protocol": "(§1) RH7777 and HEK-293 cells (ATCC, Manassas, Va.) were maintained in Dulbecco's modified minimal essential medium (DMEM) containing 10% fetal bovine serum (Hyclone, Logan, Utah). Cells (2×10^6) were transfected with 2 μg of plasmid DNA with Effectene (Qiagen, Valencia, Calif.) according to the manufacturer's instructions, for 24 h. Before ligand binding and receptor activation assays, the cells were washed twice with serum-free DMEM and serum-starved for at least 6 h.\n(§2) S1P1 Receptor Activation Assays Receptor functional assays were performed in transiently transfected RH7777 cells by measuring S1P-activated [^35S]GTPγS binding as previously described (28)."}, "S1P1 mutant F5.43G": {"molecular_target": "T2, S1P1 mutant F5.43G (Homo sapiens, UniProt P21453, F205G)", "T2 construct": "expressed in transfected cells; host or cells: RH7777 (transient, pcDNA3.1)", "T2 sequence (P21453 whole entry F205G)": "as the sequence (P21453 whole entry L262G) above, with F205G, G262L counted along it", "assay": "[35S]GTPγS binding, S1P1 F5.43G", "type": "biochemical", "details": "S1P-induced, S1P1 F5.43G in RH7777 cells", "protocol": "as §1, §2"}, "S1P1 mutant V6.40L [1]": {"molecular_target": "T3, S1P1 mutant V6.40L (Homo sapiens, UniProt P21453, V261L)", "T3 construct": "expressed in transfected cells; host or cells: RH7777", "T3 sequence (P21453 whole entry V261L)": "as the sequence (P21453 whole entry L262G) above, with V261L, G262L counted along it", "assay": "[32P]S1P radioligand binding, RH7777 cells, V6.40L", "details": "radioligand 50 nM, S1P1 V6.40L", "protocol": "as §1\n(§3) The S1P binding assays were done essentially as previously described (28). Transfected RH7777 cells (5×10^5) were incubated at 4° C. in 20 mM Tris-HCl (pH 7.5) binding buffer containing 100 mM NaCl, 15 mM NaF, protease inhibitor cocktail (Sigma-Aldrich), and 0.2 mg/ml essentially fatty-acid free BSA with 1 nM [^32P]S1P in 50 nM S1P for 40 min. Cells were centrifuged and washed twice in binding buffer. The final pellet was resuspended in 2:1 CHCl3/MeOH and the suspension was equilibrated in scintillation fluid overnight. Cell-bound radioactivity was measured by liquid scintillation counting using a Beckman LS5000 TA counter (Beckman Coulter, Irvine, Calif.). Specific binding was defined as the difference between total binding and non-specific binding (in the presence of 2-5 μM cold S1P). Standard errors were computed on the basis of triplicate samples from two simultaneous transfections."}, "S1P1 mutant L3.36E": {"molecular_target": "S1P1 mutant L3.36E (Homo sapiens, UniProt P21453, L128E)", "sequence (P21453 whole entry L128E)": "as the sequence (P21453 whole entry L262G) above, with L128E, G262L counted along it", "assay": "[35S]GTPγS binding, S1P1 L3.36E", "type": "biochemical", "design": "expressed in transfected cells; host or cells: RH7777 (transient, pcDNA3.1)", "details": "S1P-induced, S1P1 L3.36E in RH7777 cells", "protocol": "as §1, §2"}, "S1P1 mutant V6.40A": {"molecular_target": "S1P1 mutant V6.40A (Homo sapiens, UniProt P21453, V261A)", "sequence (P21453 whole entry V261A)": "as the sequence (P21453 whole entry L262G) above, with V261A, G262L counted along it", "assay": "[32P]S1P competition binding, HEK-293 cells, V6.40A", "design": "expressed in transfected cells", "details": "S1P1 V6.40A", "protocol": "(§4) For the competition assays, HEK-293 cells were used. Briefly, 4×10^5 cells were plated in 24-well dishes and allowed to adhere overnight. The cells were then transfected with 0.4 μg of the cDNA using Lipofectamine 2000 (Invitrogen) and the transfection proceeded for 48 h. After washing the cells twice with ice-cold binding buffer (20 mM Tris-HCl, pH 7.4 and 150 mM NaCl), 0.1 nM [^32P]S1P and competing concentrations of cold S1P (1 nM-10 μM), resuspended in binding buffer+4% BSA, were applied to the cells and incubated on ice for 30 min. After washing the cells twice with ice-cold binding buffer+0.4% BSA, the cells were lysed with 0.5% SDS and equilibrated in scintillation fluid. The samples were measured in triplicate."}, "S1P1 mutant V6.40T": {"molecular_target": "T4, S1P1 mutant V6.40T (Homo sapiens, UniProt P21453, V261T)", "T4 construct": "expressed in transfected cells; host or cells: RH7777", "T4 sequence (P21453 whole entry V261T)": "as the sequence (P21453 whole entry L262G) above, with V261T, G262L counted along it", "assay": "[35S]GTPγS binding, S1P1 V6.40T", "type": "biochemical", "details": "S1P-induced, S1P1 V6.40T in RH7777 cells", "protocol": "as §1, §2"}, "S1P1 mutant V6.37L": {"molecular_target": "T5, S1P1 mutant V6.37L (Homo sapiens, UniProt P21453, V258L)", "T5 construct": "expressed in transfected cells; host or cells: RH7777", "T5 sequence (P21453 whole entry V258L)": "as the sequence (P21453 whole entry L262G) above, with V258L, G262L counted along it", "assay": "[35S]GTPγS binding, S1P1 V6.37L", "type": "biochemical", "details": "S1P-induced, S1P1 V6.37L in RH7777 cells", "protocol": "as §1, §2"}, "S1P1 mutant V6.40L [2]": {"molecular_target": "T3, S1P1 mutant V6.40L", "assay": "[35S]GTPγS binding, S1P1 V6.40L", "type": "biochemical", "details": "S1P-induced, S1P1 V6.40L in RH7777 cells", "protocol": "as §1, §2"}, "S1P1 mutant L3.36G": {"molecular_target": "T6, S1P1 mutant L3.36G (Homo sapiens, UniProt P21453, L128G)", "T6 construct": "expressed in transfected cells; host or cells: RH7777 (transient, pcDNA3.1)", "T6 sequence (P21453 whole entry L128G)": "as the sequence (P21453 whole entry L262G) above, with L128G, G262L counted along it", "assay": "[35S]GTPγS binding, S1P1 L3.36G", "type": "biochemical", "details": "S1P-induced, S1P1 L3.36G in RH7777 cells", "protocol": "as §1, §2"}, "S1P1 mutant W6.48A": {"molecular_target": "T7, S1P1 mutant W6.48A (Homo sapiens, UniProt P21453, W269A)", "T7 construct": "expressed in transfected cells", "T7 sequence (P21453 whole entry W269A)": "as the sequence (P21453 whole entry L262G) above, with G262L, W269A counted along it", "assay": "[32P]S1P competition binding, HEK-293 cells, W6.48A", "details": "S1P1 W6.48A", "protocol": "as §4"}, "[3]": {"molecular_target": "T8, S1P1 double mutant L3.43, 3.44G (Homo sapiens, UniProt P21453, L135G/L136G)", "T8 construct": "expressed in transfected cells; host or cells: RH7777", "T8 sequence (P21453 whole entry L135G/L136G)": "as the sequence (P21453 whole entry L262G) above, with L135G, L136G, G262L counted along it", "assay": "[35S]GTPγS binding, S1P1 L3.43, 3.44G", "type": "biochemical", "details": "S1P-induced, S1P1 L3.43, 3.44G in RH7777 cells", "protocol": "as §1, §2"}, "WT S1P1": {"molecular_target": "WT S1P1 (Homo sapiens, UniProt P21453)", "sequence (P21453 whole entry)": "as the sequence (P21453 whole entry L262G) above, with G262L counted along it", "assay": "[32P]S1P competition binding, HEK-293 cells, WT-S1P1", "details": "WT-S1P1, HEK-293 cells", "protocol": "as §4"}, "S1P1 mutant F5.48G": {"molecular_target": "T9, S1P1 mutant F5.48G (Homo sapiens, UniProt P21453, F210G)", "T9 construct": "expressed in transfected cells", "T9 sequence (P21453 whole entry F210G)": "as the sequence (P21453 whole entry L262G) above, with F210G, G262L counted along it", "assay": "[32P]S1P radioligand binding, RH7777 cells, F5.48G", "details": "radioligand 50 nM, S1P1 F5.48G", "protocol": "as §1, §3"}, "S1P1 mutant C5.44I": {"molecular_target": "T10, S1P1 mutant C5.44I (Homo sapiens, UniProt P21453, C206I)", "T10 construct": "expressed in transfected cells; host or cells: RH7777 (transient, pcDNA3.1)", "T10 sequence (P21453 whole entry C206I)": "as the sequence (P21453 whole entry L262G) above, with C206I, G262L counted along it", "assay": "[35S]GTPγS binding, S1P1 C5.44I", "type": "biochemical", "details": "S1P-induced, S1P1 C5.44I in RH7777 cells", "protocol": "as §1, §2"}, "S1P1 mutant F6.44Y": {"molecular_target": "T11, S1P1 mutant F6.44Y (Homo sapiens, UniProt P21453, F265Y)", "T11 construct": "expressed in transfected cells; host or cells: RH7777", "T11 sequence (P21453 whole entry F265Y)": "as the sequence (P21453 whole entry L262G) above, with G262L, F265Y counted along it", "assay": "[35S]GTPγS binding, S1P1 F6.44Y", "type": "biochemical", "details": "S1P-induced, S1P1 F6.44Y in RH7777 cells", "protocol": "as §1, §2"}, "S1P1 mutant T5.45G": {"molecular_target": "T12, S1P1 mutant T5.45G (Homo sapiens, UniProt P21453, T207G)", "T12 construct": "expressed in transfected cells; host or cells: RH7777 (transient, pcDNA3.1)", "T12 sequence (P21453 whole entry T207G)": "as the sequence (P21453 whole entry L262G) above, with T207G, G262L counted along it", "assay": "[35S]GTPγS binding, S1P1 T5.45G", "type": "biochemical", "details": "S1P-induced, S1P1 T5.45G in RH7777 cells", "protocol": "as §1, §2"}, "[4]": {"details": "competition with cold S1P, read-out: KD + s.d."}}, "data": [{"compound": "CCCCCCCCCCCCC/C=C/[C@@H](O)[C@@H](N)COP(=O)(O)O", "note": "[S1P, Sphingosine 1-phosphate]", "values": [{"measurement": "% WT Emax + s.d.", "setting": "S1P1 mutant L6.41G", "result": "∞"}, {"measurement": "EC50 + s.d.", "setting": "S1P1 mutant L6.41G", "result": "∞"}, {"measurement": "EC50", "setting": "S1P1 mutant F5.43G", "result": 11.8, "unit": "nM"}, {"measurement": "Emax", "setting": "S1P1 mutant F5.43G; read-out: % WT Emax + s.d.", "result": 70, "unit": "%"}, {"measurement": "[32P]S1P binding relative to WT", "setting": "S1P1 mutant V6.40L [1]", "result": "> 50 % of the WT"}, {"measurement": "EC50", "setting": "S1P1 mutant L3.36E", "result": "0.62 ± 0.46", "unit": "nM"}, {"measurement": "Emax", "setting": "S1P1 mutant L3.36E; read-out: % WT Emax + s.d.", "result": "39 ± 2.8", "unit": "%"}, {"measurement": "Bmax", "setting": "S1P1 mutant V6.40A", "result": 2040, "unit": "fmol"}, {"measurement": "Kd", "setting": "S1P1 mutant V6.40A; [4]", "result": 27.6, "unit": "nM"}, {"measurement": "EC50", "setting": "S1P1 mutant V6.40T", "result": 57.3, "unit": "nM"}, {"measurement": "Emax", "setting": "S1P1 mutant V6.40T; read-out: % WT Emax + s.d.", "result": 61, "unit": "%"}, {"measurement": "EC50", "setting": "S1P1 mutant V6.37L", "result": 37.6, "unit": "nM"}, {"measurement": "Emax", "setting": "S1P1 mutant V6.37L; read-out: % WT Emax + s.d.", "result": 247, "unit": "%"}, {"measurement": "% WT Emax + s.d.", "setting": "S1P1 mutant V6.40L [2]", "result": "∞"}, {"measurement": "EC50 + s.d.", "setting": "S1P1 mutant V6.40L [2]", "result": "∞"}, {"measurement": "EC50", "setting": "S1P1 mutant L3.36G", "result": "23 ± 8", "unit": "nM"}, {"measurement": "Emax", "setting": "S1P1 mutant L3.36G; read-out: % WT Emax + s.d.", "result": 75, "unit": "%"}, {"measurement": "Bmax", "setting": "S1P1 mutant W6.48A", "result": 2080, "unit": "fmol"}, {"measurement": "Kd", "setting": "S1P1 mutant W6.48A; [4]", "result": 38.5, "unit": "nM"}, {"measurement": "% WT Emax + s.d.", "setting": "[3]", "result": "∞"}, {"measurement": "EC50 + s.d.", "setting": "[3]", "result": "∞"}, {"measurement": "Bmax", "setting": "WT S1P1", "result": 2450, "unit": "fmol"}, {"measurement": "Kd", "setting": "WT S1P1; [4]", "result": 38.7, "unit": "nM"}, {"measurement": "[32P]S1P binding relative to WT", "setting": "S1P1 mutant F5.48G", "result": "> 50 % of the WT"}, {"measurement": "EC50", "setting": "S1P1 mutant C5.44I", "result": "20.4 ± 2.1", "unit": "nM"}, {"measurement": "Emax", "setting": "S1P1 mutant C5.44I; read-out: % WT Emax + s.d.", "result": 37, "unit": "%"}, {"measurement": "EC50", "setting": "S1P1 mutant F6.44Y", "result": "3.7 ± 3.3", "unit": "nM"}, {"measurement": "Emax", "setting": "S1P1 mutant F6.44Y; read-out: % WT Emax + s.d.", "result": 37, "unit": "%"}, {"measurement": "EC50", "setting": "S1P1 mutant T5.45G", "result": 30.9, "unit": "nM"}, {"measurement": "Emax", "setting": "S1P1 mutant T5.45G; read-out: % WT Emax + s.d.", "result": 96, "unit": "%"}]}]}
